The text below walks through data of patent publication US11773086B2, “Fungal modulators” (TRUSTEES OF BOSTON UNIVERSITY, priority 2020, dated 2023).

Where only a bound is given, the exact number is not on record here.

For one data set, the system named is C. auris. Nature of the data set: microbe, parasite or virus in culture. Type of data set: cell-based, Candida auris. Particulars: 50 μM azoffluxin, Etest. The procedure: FIGS. 2A-2E illustrate the above-described screening of the BU-CMD which identified azoffluxin as a fluconazole (FLC) potentiator against C. auris. […] Growth, as determined by optical density at 600 nm (OD600), is plotted in the presence of each CMD compound alone on the y-axis and in combination with FLC on the x-axis. Dotted lines represent 7-median absolute deviations from the median for each condition. […] FIG. 2B depicts the synergistic interactions. […] Growth was measured by the OD600 and normalized to the no drug control (see color bar). The fractional inhibitory concentration index (FICI) was calculated to determine the chemical interaction, with a value below 0.5 indicating synergy. […] FIG. 2D depicts FLC Etest strips in the presence and absence of 50 μM azoffluxin. A total of 1×10^6 C. auris cells were added to YPD agar plates, the E-test strip was added, and plates were incubated at 30° C. for 24 hours prior to imaging. FIG. 2. […] Dose-response assay where a two-fold dilution of azoffluxin was titered starting from 50 μM. Indicated titrations have a background concentration of FLC of 32 μg/mL, 4 μg/mL, 0.25 μg/mL, and 0.5 μg/mL for C. auris Ci6684 (Erg11Y132F), C. albicans (SN95), C. glabrata (BG2) or S. cerevisiae (BY4741), respectively. […] Dose response assays were incubated for 48 hours at 30° C. in RPMI. Growth in each well was plotted by the relative optical density to the respective no drug control (See color bar in FIG. 2B).
Compound potency was assessed alone by dose response assays or in combination with another compound by dose-response matrixes in 96-well plates, or 384-well, flat-bottom, microtiter plates (Corning) as previously described. Plates were incubated at 30° C. for the indicated time period. Growth was quantified by measuring OD600 and corrected for medium background. All strains were assessed in biological duplicate experiments with technical duplicates. […] For dose-response matrixes fractional inhibitory concentration index at 90% growth inhibition (FICI90) was calculated as previously described. […]

Another data set deals with T1, MDR1 (ABCB1) (Homo sapiens, UniProt P08183).
T1 construct: expressed in transfected cells; host or cells: HEK293
T1 sequence (P08183 whole entry): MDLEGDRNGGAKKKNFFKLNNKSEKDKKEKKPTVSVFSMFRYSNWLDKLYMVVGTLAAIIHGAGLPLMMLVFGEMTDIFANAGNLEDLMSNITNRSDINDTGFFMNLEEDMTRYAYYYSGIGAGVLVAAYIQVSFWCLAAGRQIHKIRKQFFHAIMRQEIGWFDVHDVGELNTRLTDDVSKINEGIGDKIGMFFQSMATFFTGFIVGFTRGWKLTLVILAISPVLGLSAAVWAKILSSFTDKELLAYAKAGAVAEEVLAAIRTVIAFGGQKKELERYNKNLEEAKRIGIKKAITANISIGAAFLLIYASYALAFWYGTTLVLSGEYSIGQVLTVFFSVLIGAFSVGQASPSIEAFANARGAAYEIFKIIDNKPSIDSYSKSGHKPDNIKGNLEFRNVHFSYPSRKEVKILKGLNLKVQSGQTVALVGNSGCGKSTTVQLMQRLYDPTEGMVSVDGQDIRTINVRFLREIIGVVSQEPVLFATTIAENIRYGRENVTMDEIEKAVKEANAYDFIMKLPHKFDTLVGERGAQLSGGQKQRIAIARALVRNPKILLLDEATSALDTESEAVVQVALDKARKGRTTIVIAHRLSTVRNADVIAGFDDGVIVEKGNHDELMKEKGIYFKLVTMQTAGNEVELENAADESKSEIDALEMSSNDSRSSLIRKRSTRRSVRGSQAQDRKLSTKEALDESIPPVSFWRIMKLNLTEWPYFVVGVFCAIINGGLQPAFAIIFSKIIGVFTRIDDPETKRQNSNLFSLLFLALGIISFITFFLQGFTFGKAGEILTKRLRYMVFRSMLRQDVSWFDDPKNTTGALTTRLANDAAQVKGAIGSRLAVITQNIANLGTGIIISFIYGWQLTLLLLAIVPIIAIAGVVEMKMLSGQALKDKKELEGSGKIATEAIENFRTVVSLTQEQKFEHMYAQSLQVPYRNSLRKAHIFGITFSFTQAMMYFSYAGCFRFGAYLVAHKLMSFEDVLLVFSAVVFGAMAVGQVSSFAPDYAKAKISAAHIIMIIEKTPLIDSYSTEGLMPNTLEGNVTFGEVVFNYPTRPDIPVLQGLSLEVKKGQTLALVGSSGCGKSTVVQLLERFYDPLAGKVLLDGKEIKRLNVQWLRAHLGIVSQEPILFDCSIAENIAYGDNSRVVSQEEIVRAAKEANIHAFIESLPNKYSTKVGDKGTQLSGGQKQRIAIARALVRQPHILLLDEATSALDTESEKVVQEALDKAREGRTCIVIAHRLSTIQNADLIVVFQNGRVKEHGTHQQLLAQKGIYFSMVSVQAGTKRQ
Nature of the data set: Rhodamine 6G accumulation in MDR1-overexpressing HEK293 cells (flow cytometry). The format is cell-based, mammalian. The procedure:
P-gp overexpressing HEK293 cell lines were used to determine if azoffluxin treatment leads to a greater accumulation of fluorescent substrates (MFI) as determined by flow cytometry.
MDR1 (ABCB1) and MRP1 (ABCC1) was assessed using the fluorescent dyes rhodamine 6G (0.5 μg/mL) and Calcein AM (2.5 μg/mL), for each pump respectively, and the known inhibitor controls tariquidar (60 nM) and MK571 (30 μM) for each pump respectively. Listed data is shown by FIG. 12E (R6G) and FIG. 12F (Cal).
In general terms: A flow cytometer gives signals particle by particle.

Take `C=C(C)C[C@@H](O)COc1cc2c(cc1C1(c3cc4c(cc3OC[C@H](O)CC(=C)C)OCO4)C(=O)Nc3cc(F)ccc31)OCO2` [CMLD012336]: the “fluconazole MIC in presence of azoffluxin” value with C. auris was 16 µg/mL. The “reduction of fluconazole MIC” value in the data set with C. auris (solid medium) is given as greater than 16 fold. Moreover, the “dye accumulation in control cDNA cells” value on MDR1 (ABCB1) is “no effect”.
